Values quoted from earlier work, collected in patent US11884694B2, “Non-caloric sweeteners and methods for synthesizing” (Conagen Inc., priority 2014, dated 2024).

Details: sweetness compared with sucrose

| SMILES | times sweeter than sucrose |
| --- | --- |
| C=C1C[C@@]23CC[C@H]4[C@@](C)(CCC[C@@]4(C)C(=O)O[C@@H]4O[C@H](CO)[C@@H](O)[C@H](O)[C@H]4O)[C@@H]2CC[C@]1(O[C@@H]1O[C@H](CO)[C@@H](O)[C@H](O)[C@H]1O[C@@H]1O[C@@H](C)[C@H](O)[C@@H](O)[C@H]1O)C3 [Dulcoside A] | about 30 times |
| C=C1C[C@@]23CC[C@H]4[C@@](C)(CCC[C@@]4(C)C(=O)O[C@@H]4O[C@H](CO)[C@@H](O)[C@H](O)[C@H]4O)[C@@H]2CC[C@]1(O[C@@H]1O[C@H](CO)[C@@H](O)[C@H](O[C@@H]2O[C@H](CO)[C@@H](O)[C@H](O)[C@H]2O)[C@H]1O[C@@H]1O[C@@H](C)[C@H](O)[C@@H](O)[C@H]1O)C3 [Rebaudioside C] | 40-60 times |
| C=C1C[C@@]23CC[C@H]4[C@@](C)(CCC[C@@]4(C)C(=O)O[C@@H]4O[C@H](CO)[C@@H](O)[C@H](O)[C@H]4O)[C@@H]2CC[C@]1(O[C@@H]1O[C@H](CO)[C@@H](O)[C@H](O)[C@H]1O[C@@H]1O[C@H](CO)[C@@H](O)[C@H](O)[C@H]1O)C3 [stevioside, Stevioside] | 100-150 times |
